Our source for the IC50 values is patent publication US10040766B2, “Ubiquitination inhibitors” (Rigel Pharmaceuticals, Inc., priority 2014, dated 2018).

Assay [1] concerns fibrosarcoma HT1080. In words: Inhibition of tumor cell growth, HT1080. The assay is classed as cell-based.
Assay [2] concerns lung tumor cell line A549. Briefly: Inhibition of tumor cell growth, A549. Format: cell-based.
Assay [3] deals with Cks1-Skp2 protein-protein interaction (Homo sapiens, UniProt P61024+Q13309). Briefly: Cks1-Skp2 protein-protein interaction ELISA. Format: binding. From the text:
In vitro binding of Skp2 to Cks1 was established in an ELISA assay format, with Cks1 protein immobilized on a 384-well plate and binding of Skp1/Skp2 to Cks1 detected by anti-Skp2 immunoreaction.
On the technique in general: ELISA stands for enzyme-linked immunosorbent assay.

[4] abbreviates: Table 3, read-out: IC50 Cks1-Skp2.
The mark [5] stands for this setting: sulfonamide analogues, Table 2, read-out: Potency in the Cks1-Skp2 interaction assay.
Setting [6] is: ELISA, Cks1 immobilized, Skp1/Skp2 binding detected by anti-Skp2, read-out: Cks1-Skp2 (μM), potency in the interaction assay.

Read-outs that look alike come from different tables or passages of the source.

Cks1-Skp2 protein-protein interaction, sequence (P61024 whole entry): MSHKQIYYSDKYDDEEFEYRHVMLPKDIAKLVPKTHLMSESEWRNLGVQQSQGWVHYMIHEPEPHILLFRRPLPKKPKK
Cks1-Skp2 protein-protein interaction, sequence (Q13309 whole entry): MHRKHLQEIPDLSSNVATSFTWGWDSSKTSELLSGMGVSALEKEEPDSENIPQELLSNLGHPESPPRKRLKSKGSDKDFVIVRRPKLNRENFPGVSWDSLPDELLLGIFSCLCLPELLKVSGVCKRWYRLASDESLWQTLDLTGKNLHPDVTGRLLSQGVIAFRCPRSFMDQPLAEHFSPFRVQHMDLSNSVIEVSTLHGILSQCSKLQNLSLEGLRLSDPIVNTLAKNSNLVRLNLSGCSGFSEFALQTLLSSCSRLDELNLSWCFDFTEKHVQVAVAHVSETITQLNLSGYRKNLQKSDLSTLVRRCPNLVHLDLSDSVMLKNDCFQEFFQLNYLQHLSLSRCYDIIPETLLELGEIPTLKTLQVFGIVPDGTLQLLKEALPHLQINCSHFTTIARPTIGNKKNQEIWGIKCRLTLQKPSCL

Take “4-methoxy-N-(5-(pyridin-3-yl)quinolin-8-yl)benzenesulfonamide [Compound 29]”: the IC50 is 1320 nM in assay [1], 3060 nM in assay [2], 2.45 µM in assay [3] (setting [4]) and 2.45 µM in assay [3] (setting [5]).
On to “4-methoxy-N-(5-(pyridin-4-yl)quinolin-8-yl)benzenesulfonamide [Compound 23]”, for which the IC50 was determined as 440 nM in assay [1], 1240 nM in assay [2], 0.58 µM in assay [3] (setting [4]) and 0.58 µM in assay [3] (setting [5]).
As for `Cc1ccc(S(=O)(=O)Nc2ccc(Br)c3cccnc23)cc1` [Compound 1, N-(5-bromoquinolin-8-yl)-4-methylbenzenesulfonamide], in assay [3] (setting [6]), the IC50 was found to be 0.84 µM.
Consider `Cc1ccc(S(=O)(=O)Nc2ccc(-c3ccccc3)c3cccnc23)cc1` [Compound 4, 4-methyl-N-(5-phenylquinolin-8-yl)benzenesulfonamide], for which the IC50 worked out at 1640 nM in assay [1] (Homo sapiens, HT-1080); 2360 nM in assay [2] (Homo sapiens); 0.54 µM in assay [3] (setting [6]); 0.54 µM in assay [3] (setting [4]).
Consider `Cc1ccc(S(=O)(=O)Nc2ccc(-c3ccco3)c3cccnc23)cc1` [Compound 5, N-(5-(furan-2-yl)quinolin-8-yl)-4-methylbenzenesulfonamide], for which the IC50 stood at 9780 nM in assay [1] (Homo sapiens, HT-1080); 26000 nM in assay [2] (Homo sapiens); 0.55 µM in assay [3] (setting [6]); 0.55 µM in assay [3] (setting [4]).
As to `Cc1ccc(S(=O)(=O)Nc2ccc(-c3cccnc3)c3cccnc23)cc1` [Compound 6, 4-methyl-N-(5-(pyridin-3-yl)quinolin-8-yl)benzenesulfonamide], the IC50 was 4220 nM in assay [1] (Homo sapiens, HT-1080); 6020 nM in assay [2] (Homo sapiens); 1.73 µM in assay [3] (setting [6]); 1.73 µM in assay [3] (setting [4]).
Consider `Cc1ccc(S(=O)(=O)Nc2ccc(-c3ccsc3)c3cccnc23)cc1` [Compound 7, 4-methyl-N-(5-(thiophen-3-yl)quinolin-8-yl)benzenesulfonamide], for which the IC50 in assay [1] (Homo sapiens, HT-1080) was determined as 640 nM; in assay [2] (Homo sapiens) it was 2360 nM; in assay [3] (setting [6]), 5.54 µM; in assay [3] (setting [4]) it was 5.54 µM.
For `Cc1ccc(S(=O)(=O)Nc2ccc(-c3cc4ccccc4s3)c3cccnc23)cc1` [Compound 8, N-(5-(benzo[b]thiophen-2-yl)quinolin-8-yl)-4-methylbenzenesulfonamide], the IC50 in assay [1] (Homo sapiens, HT-1080) worked out at 150 nM; in assay [2] (Homo sapiens), 390 nM; in assay [3] (setting [6]), 7.84 µM; in assay [3] (setting [4]), 7.84 µM.
As to `Cc1ccc(S(=O)(=O)Nc2cc(Oc3cc(F)cc(F)c3)cc3cccnc23)cc1` [Compound 12, N-(6-(3,5-difluorophenoxy)quinolin-8-yl)-4-methylbenzenesulfonamide], the IC50 in assay [1] was found to be 80 nM; in assay [2], 4110 nM; in assay [3] (setting [6]), 3.57 µM; in assay [3] (setting [4]), 3.57 µM.
`COc1ccc(Oc2cc(NS(=O)(=O)c3ccc(C)cc3)c3ncccc3c2)cc1` [Compound 13, N-(6-(4-methoxyphenoxy)quinolin-8-yl)-4-methylbenzenesulfonamide]: the IC50 in assay [1] is 740 nM; in assay [2], 4090 nM; in assay [3] (setting [6]), 1.15 µM; in assay [3] (setting [4]) it was 1.15 µM.
Turning to `Cc1ccc(S(=O)(=O)Nc2cc(Oc3cccc(C#N)c3)cc3cccnc23)cc1` [Compound 14, N-(6-(3-cyanophenoxy)quinolin-8-yl)-4-methylbenzenesulfonamide], the IC50 is 6830 nM in assay [1], 6480 nM in assay [2], 1.74 µM in assay [3] (setting [6]) and 1.74 µM in assay [3] (setting [4]).
In the case of `CS(=O)(=O)Nc1ccc(-c2ccccc2)c2cccnc12` [Compound 15, N-(5-phenylquinolin-8-yl)methanesulfonamide], the IC50 in assay [3] (setting [5]) worked out at 2.2 µM.
On to `O=S(=O)(Nc1ccc(-c2ccccc2)c2cccnc12)C1CC1` [Compound 16, N-(5-phenylquinolin-8-yl)cyclopropanesulfonamide], for which, in assay [3] (setting [5]), the IC50 stood at 12.1 µM.
As to `COc1ccc(S(=O)(=O)Nc2ccc(-c3ccccc3)c3cccnc23)cc1` [Compound 17, 4-methoxy-N-(5-phenylquinolin-8-yl)benzenesulfonamide], the IC50 in assay [3] (setting [5]) stood at 8.02 µM.
On the same count and under the same terms, as for `O=S(=O)(Nc1ccc(-c2ccccc2)c2cccnc12)c1cccc(C(F)(F)F)c1` [Compound 18, N-(5-phenylquinolin-8-yl)-3-(trifluoromethyl)benzenesulfonamide], the figure is 6.7 µM.
Still for that read-out and setting: as for `O=S(=O)(Nc1ccc(-c2ccccc2)c2cccnc12)c1cccnc1` [Compound 19, N-(5-phenylquinolin-8-yl)pyridine-3-sulfonamide], the figure is 2.2 µM.
For `CC(=O)Nc1ccc(S(=O)(=O)Nc2ccc(-c3ccccc3)c3cccnc23)cc1` [Compound 20, N-(4-(N-(5-phenylquinolin-8-yl)sulfamoyl)phenyl)acetamide], in assay [3] (setting [5]), the IC50 is 7.6 µM.
Same read-out and setting: as for `CS(=O)(=O)Nc1ccc(-c2cccnc2)c2cccnc12` [Compound 21, N-(5-(pyridin-3-yl)quinolin-8-yl)methanesulfonamide], the figure is 15.1 µM; as for `O=S(=O)(Nc1ccc(-c2cccnc2)c2cccnc12)C1CC1` [Compound 22, N-(5-(pyridin-3-yl)quinolin-8-yl)cyclopropanesulfonamide], 7.16 µM.
As for `O=S(=O)(Nc1ccc(-c2cccnc2)c2cccnc12)c1cccc(C(F)(F)F)c1` [Compound 24, N-(5-(pyridin-3-yl)quinolin-8-yl)-3-(trifluoromethyl)benzenesulfonamide], the IC50 in assay [1] (Homo sapiens, HT-1080) was 400 nM; in assay [2] (Homo sapiens) it was 910 nM; in assay [3] (setting [4]), 0.17 µM; in assay [3] (setting [5]), 0.17 µM.
With `O=S(=O)(Nc1ccc(-c2cccnc2)c2cccnc12)c1cccnc1` [Compound 25, N-(5-(pyridin-3-yl)quinolin-8-yl)pyridine-3-sulfonamide], the IC50 in assay [1] (Homo sapiens, HT-1080) is 1070 nM; in assay [2] (Homo sapiens) it was 5240 nM; in assay [3] (setting [4]), 1.67 µM; in assay [3] (setting [5]) it was 1.67 µM.
`CC(=O)Nc1ccc(S(=O)(=O)Nc2ccc(-c3cccnc3)c3cccnc23)cc1` [Compound 26, N-(4-(N-(5-(pyridin-3-yl)quinolin-8-yl)sulfamoyl)phenyl)acetamide]: the IC50 in assay [3] (setting [5]) is 14.5 µM.
For `O=S(=O)(Nc1ccc(-c2ccncc2)c2cccnc12)C1CC1` [Compound 28, N-(5-(pyridin-4-yl)quinolin-8-yl)cyclopropanesulfonamide], the IC50 in assay [3] (setting [5]) came to 10.9 µM.
`O=S(=O)(Nc1ccc(-c2ccncc2)c2cccnc12)c1cccnc1` [Compound 30, N-(5-(pyridin-4-yl)quinolin-8-yl)pyridine-3-sulfonamide]: the IC50 is 1070 nM in assay [1] (Homo sapiens, HT-1080); 5880 nM in assay [2] (Homo sapiens); 1.21 µM in assay [3] (setting [4]); 1.21 µM in assay [3] (setting [5]).
On to `CC(=O)Nc1ccc(S(=O)(=O)Nc2ccc(-c3ccncc3)c3cccnc23)cc1` [Compound 31, N-(4-(N-(5-(pyridin-4-yl)quinolin-8-yl)sulfamoyl)phenyl)acetamide], for which the IC50 in assay [3] (setting [5]) was determined as 6.55 µM.
